Data: patent US11173162B2, “Bicyclic heterocycles as FGFR4 inhibitors” (Incyte Corporation, priority 2015, dated 2021)

system: FGFR3 enzyme; experiment: FGFR Enzymatic Assay (FRET peptide phosphorylation), FGFR3; format: biochemical; conditions: IC50 ratio showing FGFR3 selectivity; Table 2A, pre-incubated for 4 hours
Description: The inhibitor potency of the exemplified compounds was measured in an enzyme assay that measures peptide phosphorylation using FRET measurements to detect product formation. Inhibitors were serially diluted in DMSO and a volume of 0.5 μL was transferred to the wells of a 384-well plate.
GraphPad prism3 was used to analyze the data.

Row | Structure (SMILES) | FGFR1/FGFR3 | FGFR4/FGFR3
1 | COc1cc(OC)c(F)c(N2Cc3cnc(-c4cnn(CCCN5CCOCC5)c4)cc3C3(CC3)C2=O)c1F [Example 151, 2′-(2,6-difluoro-3,5-dimethoxyphenyl)-6′-(1-(3-morpholinopropyl)-1H-pyrazol-4-yl)-1′H-spiro[cyclopropane-1,4′-[2,7]naphthyridin]-3′(2′H)-one] | >5 | >5
2 | COc1cc(OC)c(F)c(N2Cc3cnc(-c4cn(C)nc4C)cc3N(Cc3ccc(F)c(F)c3)C2=O)c1F [Example 73, 3-(2,6-difluoro-3,5-dimethoxyphenyl)-1-(3,4-difluorobenzyl)-7-(1,3-dimethyl-1H-pyrazol-4-yl)-3,4-dihydropyrido[4,3-d]pyrimidin-2(1H)-one] | >5 | >10
3 | COc1cc(OC)c(F)c(N2Cc3cnc(-c4cn(C)nc4C)cc3N(C3CCOC3)C2=O)c1F (stereo not shown) [Example 33, 3-(2,6-difluoro-3,5-dimethoxyphenyl)-7-(1,3-dimethyl-1H-pyrazol-4-yl)-1-(tetrahydrofuran-3-yl)-3,4-dihydropyrido[4,3-d]pyrimidin-2(1H)-one] | >5 | >5
4 | CCN1C(=O)N(c2c(F)c(OC)cc(OC)c2F)Cc2cnc(-c3cn(CC(=O)N4CCOCC4)nc3C)cc21 [Example 51, 3-(2,6-difluoro-3,5-dimethoxyphenyl)-1-ethyl-7-(3-methyl-1-(2-morpholino-2-oxoethyl)-1H-pyrazol-4-yl)-3,4-dihydropyrido[4,3-d]pyrimidin-2(1H)-one] | >1 | >1
5 | CCN1C(=O)N(c2c(F)c(OC)cc(OC)c2F)Cc2cnc(-c3ccc(C(=O)NCCO)nc3)cc21 [Example 177, 5-(3-(2,6-difluoro-3,5-dimethoxyphenyl)-1-ethyl-2-oxo-1,2,3,4-tetrahydropyrido[4,3-d]pyrimidin-7-yl)-N-(2-hydroxyethyl)picolinamide] | >5 | >10
6 | CNS(=O)(=O)c1cccc(N2C(=O)N(c3c(F)c(OC)cc(OC)c3F)Cc3cnc(-c4cn(C)nc4C)cc32)c1 [Example 111, 3-(3-(2,6-difluoro-3,5-dimethoxyphenyl)-7-(1,3-dimethyl-1H-pyrazol-4-yl)-2-oxo-3,4-dihydropyrido[4,3-d]pyrimidin-1(2H)-yl)-N-methylbenzenesulfonamide] | >3 | >5
7 | COc1cc(OC)c(F)c(N2Cc3cnc(-c4cn(C)nc4C)cc3N(c3ccncn3)C2=O)c1F [Example 45, 3-(2,6-difluoro-3,5-dimethoxyphenyl)-7-(1,3-dimethyl-1H-pyrazol-4-yl)-1-pyrimidin-4-yl-3,4-dihydropyrido[4,3-d]pyrimidin-2(1H)-one] | >10 | >10
8 | CCn1cc(CN2C(=O)N(c3c(F)c(OC)cc(OC)c3F)Cc3cnc(-c4cn(C)nc4C)cc32)cn1 [Example 39, 3-(2,6-difluoro-3,5-dimethoxyphenyl)-7-(1,3-dimethyl-1H-pyrazol-4-yl)-1-((1-ethyl-1H-pyrazol-4-yl)methyl)-3,4-dihydropyrido[4,3-d]pyrimidin-2(1H)-one] | >10 | >10
9 | CCN1C(=O)N(c2c(F)c(OC)cc(OC)c2F)Cc2cnc(-c3cnn(C)c3)cc21 [Example 169, 3-(2,6-difluoro-3,5-dimethoxyphenyl)-1-ethyl-7-(1-methyl-1H-pyrazol-4-yl)-3,4-dihydropyrido[4,3-d]pyrimidin-2(1H)-one] | >3 | >5
10 | CNC(=O)c1ccc(-c2cc3c(cn2)CN(c2c(F)c(OC)cc(OC)c2F)C(=O)C32CC2)cn1 [Example 18, 5-(2′-(2,6-difluoro-3,5-dimethoxyphenyl)-3′-oxo-2′,3′-dihydro-1′H-spiro[cyclopropane-1,4′-[2,7]naphthyridine]-6′-yl)-N-methylpicolinamide] | >5 | 
11 | COc1cc(OC)c(F)c(N2Cc3cnc(-c4cn(CCN(C)C)nc4C)cc3C3(CC3)C2=O)c1F [Example 164, 2′-(2,6-difluoro-3,5-dimethoxyphenyl)-6′-(1-(2-(dimethylamino)ethyl)-3-methyl-1H-pyrazol-4-yl)-1′H-spiro[cyclopropane-1,4′-[2,7]naphthyridin]-3′(2′H)-one] | >3 | >3
12 | COC(=O)N1CCC(N2C(=O)N(c3c(F)c(OC)cc(OC)c3F)Cc3cnc(-c4cn(C)nc4C)cc32)CC1 [Example 122, Methyl 4-(3-(2,6-difluoro-3,5-dimethoxyphenyl)-7-(1,3-dimethyl-1H-pyrazol-4-yl)-2-oxo-3,4-dihydropyrido[4,3-d]pyrimidin-1(2H)-yl)piperidine-1-carboxylate] | >5 | >5
13 | CCN1C(=O)N(c2c(F)c(OC)cc(OC)c2F)Cc2cnc(-c3ccc(C(C)(C)C#N)nc3)cc21 [Example 26, 2-(5-(3-(2,6-difluoro-3,5-dimethoxyphenyl)-1-ethyl-2-oxo-1,2,3,4-tetrahydropyrido[4,3-d]pyrimidin-7-yl)pyridin-2-yl)-2-methylpropanenitrile] | >5 | >5
14 | COc1cc(OC)c(F)c(N2Cc3cnc(-c4cn(C)nc4C)cc3N(Cc3cc(C)on3)C2=O)c1F [Example 31, 3-(2,6-difluoro-3,5-dimethoxyphenyl)-7-(1,3-dimethyl-1H-pyrazol-4-yl)-1-((5-methylisoxazol-3-yl)methyl)-3,4-dihydropyrido[4,3-d]pyrimidin-2(1H)-one] | >5 | >10
15 | COc1cc(OC)c(F)c(N2Cc3cnc(-c4cn(C)nc4C)cc3N(c3cnccn3)C2=O)c1F [Example 70, 3-(2,6-difluoro-3,5-dimethoxyphenyl)-7-(1,3-dimethyl-1H-pyrazol-4-yl)-1-(pyrazin-2-yl)-3,4-dihydropyrido[4,3-d]pyrimidin-2(1H)-one] | >5 | >5
16 | CCCNC(=O)c1ccc(-c2cc3c(cn2)CN(c2c(F)c(OC)cc(OC)c2F)C(=O)N3CC)cn1 [Example 179, 5-(3-(2,6-difluoro-3,5-dimethoxyphenyl)-1-ethyl-2-oxo-1,2,3,4-tetrahydropyrido[4,3-d]pyrimidin-7-yl)-N-propylpicolinamide] | >5 | >10
17 | COc1cc(OC)c(F)c(N2Cc3cnc(-c4cn(C)nc4C)cc3N(c3ccc(S(C)(=O)=O)cc3)C2=O)c1F [Example 98, 3-(2,6-difluoro-3,5-dimethoxyphenyl)-7-(1,3-dimethyl-1H-pyrazol-4-yl)-1-(4-(methylsulfonyl)phenyl)-3,4-dihydropyrido[4,3-d]pyrimidin-2(1H)-one] | >5 | >10

Next, values leading:

Row | FGFR1/FGFR3 | FGFR4/FGFR3 | Structure (SMILES)
18 | >5 | >3 | COC(=O)Nc1ccc(N2C(=O)N(c3c(F)c(OC)cc(OC)c3F)Cc3cnc(-c4cn(C)nc4C)cc32)cc1 [Example 123, Methyl 4-(3-(2,6-difluoro-3,5-dimethoxyphenyl)-7-(1,3-dimethyl-1H-pyrazol-4-yl)-2-oxo-3,4-dihydropyrido[4,3-d]pyrimidin-1(2H)-yl)phenylcarbamate]
19 | >10 | >10 | COc1cc(OC)c(F)c(N2Cc3cnc(-c4cn(C)nc4C)cc3N(c3ccnnc3)C2=O)c1F [Example 57, 3-(2,6-difluoro-3,5-dimethoxyphenyl)-7-(1,3-dimethyl-1H-pyrazol-4-yl)-1-(pyridazin-4-yl)-3,4-dihydropyrido[4,3-d]pyrimidin-2(1H)-one]
20 | >5 | >5 | COc1cc(OC)c(F)c(N2Cc3cnc(-c4cn(C)nc4C)cc3N(c3ccc(F)c(C#N)c3)C2=O)c1F [Example 66, 5-(3-(2,6-difluoro-3,5-dimethoxyphenyl)-7-(1,3-dimethyl-1H-pyrazol-4-yl)-2-oxo-3,4-dihydropyrido[4,3-d]pyrimidin-1(2H)-yl)-2-fluorobenzonitrile]
21 | >3 | >3 | COc1cc(OC)c(F)c(N2Cc3cnc(-c4cn(C5CCN(C)C5)nc4C)cc3C3(CC3)C2=O)c1F (stereo not shown) [Example 163, 2′-(2,6-difluoro-3,5-dimethoxyphenyl)-6′-(3-methyl-1-(1-methylpyrrolidin-3-yl)-1H-pyrazol-4-yl)-1′H-spiro[cyclopropane-1,4′-[2,7]naphthyridin]-3′(2′H)-one]
22 | >10 | >5 | CNC(=O)c1ccc(CN2C(=O)N(c3c(F)c(OC)cc(OC)c3F)Cc3cnc(-c4cn(C)nc4C)cc32)cc1 [Example 62, 4-((3-(2,6-difluoro-3,5-dimethoxyphenyl)-7-(1,3-dimethyl-1H-pyrazol-4-yl)-2-oxo-3,4-dihydropyrido[4,3-d]pyrimidin-1(2H)-yl)methyl)-N-methylbenzamide]
23 | >5 | >10 | COc1cc(OC)c(F)c(N2Cc3cnc(-c4cn(C)nc4C)cc3N(Cc3ccncn3)C2=O)c1F [Example 65, 3-(2,6-difluoro-3,5-dimethoxyphenyl)-7-(1,3-dimethyl-1H-pyrazol-4-yl)-1-(pyrimidin-4-ylmethyl)-3,4-dihydropyrido[4,3-d]pyrimidin-2(1H)-one]
24 | >5 | >5 | COc1cc(OC)c(F)c(N2Cc3cnc(-c4cn(C)nc4C)cc3N(Cc3ccc4c(c3)OCCO4)C2=O)c1F [Example 38, 3-(2,6-difluoro-3,5-dimethoxyphenyl)-1-((2,3-dihydrobenzo[b][1,4]dioxin-6-yl)methyl)-7-(1,3-dimethyl-1H-pyrazol-4-yl)-3,4-dihydropyrido[4,3-d]pyrimidin-2(1H)-one]
25 | >5 | >1 | COc1cc(OC)c(F)c(N2Cc3cnc(-c4cn(C5CCS(=O)(=O)C5)nc4C)cc3C3(CC3)C2=O)c1F (stereo not shown) [Example 54, 2′-(2,6-difluoro-3,5-dimethoxyphenyl)-6′-[1-(1,1-dioxidotetrahydro-3-thienyl)-3-methyl-1H-pyrazol-4-yl]-1′,2′-dihydro-3′H-spiro[cyclopropane-1,4′-[2,7]naphthyridin]-3′-one]
